Experiments:
[1] = system: disseminated L1210 murine leukemia; test: Antileukemic activity against disseminated L1210 murine leukemia; assay type: in vivo; settings: for ILS % (increase in life span): L1210 10^5 cells/mouse IV day 0; for ILS % (increase in life span) / Tox (number of toxic deaths/number of mice): PNU 166196 0.26 mg/kg/day iv days +1,2, combination same doses and schedule; for Toxicity (in words): single agents: cisplatin 5.9 mg/kg day +3, carboplatin 135 mg/kg day +3, PNU 166196 0.26 mg/kg days +1,2
[2] = system: human colon carcinoma HCT-116 (low/medium GST and MMR deficiency); test: Antitumor activity against subcutaneous implanted HCT-116 human colon carcinoma; assay type: in vivo; settings: for Log cell Kill total / WL % day of nadir / WL % / Tumor free/total mice: IV q7dx3; for Log cell Kill total / WL % day of nadir / WL % / T/C % (tumor regression) / Tumor free/total mice: PNU 166196 0.4 mg/kg, cisplatin 2 mg/kg; for WL %: at nadir; for T/C % (tumor regression): day 20 after treatment, IV q7dx3 from day 7 after implant, PNU 166196 48 hours after cisplatin, NCI: T/C ≦ 42 active; for Tumor free/total mice: on day 40 after tumor implant
[3] = Table 2, carboplatin 135 mg/kg iv day +3
[4] = Table 1, cisplatin 5.9 mg/kg iv day +3

N.N.O=C([O-])C1(C(=O)[O-])CCC1.[Pt+2] [Carboplatin, carboplatin, reference compound]
ILS % (increase in life span) [1, 3]: 50% | Tox (number of toxic deaths/number of mice) [1, 3]: 0/10 | Toxicity (in words) [1]: without toxicity

N.N.[Cl][Pt][Cl] [Cisplatin, cisplatin, reference compound]
Log cell Kill total [2]: 0 | WL % day of nadir [2]: 24 days | WL % [2]: 12% | T/C % (tumor regression) [2]: 92% | Tumor free/total mice [2]: 0/7 | ILS % (increase in life span) [1, 4]: 67%

C=C(Br)C(=O)Nc1cc(C(=O)Nc2cc(C(=O)Nc3cc(C(=O)Nc4cc(C(=O)NCCNC(=N)N)n(C)c4)n(C)c3)n(C)c2)n(C)c1.Cl [PNU 166196, N-(5-{[(5-{[(5-{[(2-{[amino(imino)methyl]amino}ethyl)amino]carbonyl}-1-methyl-1H-pyrrol-3-yl)amino]carbonyl}-1-methyl-1H-pyrrol-3-yl)amino]carbonyl}-1-methyl-1H-pyrrol-3-yl)-4-[(2-bromoacryloyl)amino]-1-methyl-1H-pyrrole-2-carboxamide hydrochloride]
Log cell Kill total [2]: 0.15 | WL % day of nadir [2]: 29 days | WL % [2]: 12% | T/C % (tumor regression) [2]: 61% | Tumor free/total mice [2]: 0/8 | Toxicity (in words) ([2]; single agents: cisplatin 2 mg/kg q7dx3, PNU 166196 0.4 mg/kg q7dx3): without toxicity | ILS % (increase in life span) [1, 4]: 33% | Tox (number of toxic deaths/number of mice) [1, 4]: 0/10 | ILS % (increase in life span) [1, 3]: 33% | Tox (number of toxic deaths/number of mice) [1, 3]: 0/10 | Toxicity (in words) [1]: without toxicity

Reference: US8642580B2, “Combined therapy against tumors comprising substituted acryloyl distamycin derivatives and platinum derivatives” (priority 2000, dated 2014)
